Counter-ions that a name gives are not always drawn.
Legend:
[1] = test system: rat and human malignant cells studied, as well as normal cells; experiment: Cell proliferation assay (WST-1, OD 450 nm), all cell lines; format: cell-based; conditions: data not shown
Experimental: Primary cell lines were prepared from human gliomas (glioblastoma multiforme [GBM] or astrocytoma) or established rat glioma cell lines (RG2, C6 and 9L) were used. Cultured human normal cell lines, brain microvessel endothelial cells (HBMVEC), or fetal astrocytes were used.
Cells (5×10^4 cells) were cultured in each well of 96-well microtiter culture plates and were allowed to achieve confluency to form a monolayer of cells in each well. For dose response studies cells were incubated with different concentrations (1–100 μg/mL) of NS-1619 or minoxidil sulfate for 4 hours at 37° C. in a CO2 (5%) incubator. Cells washed twice carefully with respective medium, and allowed to incubate overnight at 37° C. under 5% CO2. The following day, cells were incubated with WST-1 reagent (Boehringer Mannheim) at 37° C. in a CO2 (5%) incubator for 60–90 minutes, and optical density at 450 nm was measured with a 96-well plate reader. The magnitude of OD indicated the number of viable cells, greater the OD, higher the number of viable cells, correlated a standard curve of cell numbers.

[2] = test system: PTK activity in RG2 cell lysate; experiment: Protein tyrosine kinase (PTK) assay; format: biochemical, rat; conditions: 1–50 μM (FIG. 10)
Experimental: A PTK assay kit (The Oncogene Research Products, Boston, Mass.) was used to determine the presence and relative amounts of protein kinase activity in tissue cytosols and cell extracts. Briefly, 1×10^4 RG2 cells seeded in a 50-mL culture flask, and allowed to achieve confluency to form a monolayer at 37° C. in a CO2 incubator.
Briefly, RG2 cells were harvested after trypsinization, and cells were pelleted by centrifugation. Cells were resuspended with extraction buffer (20 mM Tris, pH 7.4, 50 mM NaCl, 1 mM EDTA, 1 mM EGTA, 0.2 mM PMSF, 1 μg/mL pepstatin, 0.5 μg/mL leupetin, 0.2 mM Na3VO4, 5 mM mercaptoethanol, 0.1% Triton X-100), and cells were lysed using a cell homogenizer. After centrifugation, supernatant was separated from the pellet for PTK assay. The supernatant was treated with superoxide dismutase. Pervanadate (100 mM) was used in the PTK assay to inhibit […] activity, and protein concentration was determined by Lowry's method using a Bio-Rad protein assay kit. […]
Assay for PTK activity in RG2 cell-lysates was then performed according to the protocol supplied by the PTK assay kit's manufacturer. After adding the stop solution, absorbance measured in each well at 450 nm using a Spectramax Plus (Molecular Devices, Sunnyvale, Calif.).

With `Nc1cc(N2CCCCC2)nc(N)[n+]1OS(=O)(=O)[O-]` [minoxidil sulfate] the “sensitivity (cell proliferation)” value [1] was “insensitive”.
`CC(C)[C@@H]1NC(=O)[C@H](C)OC(=O)[C@@H](C(C)C)NC(=O)[C@@H](C(C)C)OC(=O)[C@H](C(C)C)NC(=O)[C@H](C)OC(=O)[C@@H](C(C)C)NC(=O)[C@@H](C(C)C)OC(=O)[C@H](C(C)C)NC(=O)[C@H](C)OC(=O)[C@@H](C(C)C)NC(=O)[C@@H](C(C)C)OC1=O` [Valinomycin] was tested, and the PTK activity [2] was “inhibited PTK activity in RG2 cell lysate in a dose-dependent manner”.
